The numbers were not newly measured in patent US20230059869A1, “ORAL PHARMACEUTICAL SOLUTION OF CLOPIDOGREL” (LIQMEDS WORLDWIDE LIMITED, priority 2021, published 2023), which cites them from elsewhere.

For series [1] the following is noted: see Reist; Badorc.
For series [2] the following is noted: at high doses; see Reist; Badorc.

For `COC(=O)[C@@H](c1ccccc1Cl)N1CCc2sccc2C1` [Impurity C, (R)-Methyl (2-chlorophenyl)(6,7-dihydro-4H-thieno[3,2-c]pyridin-5-yl)acetate], the antithrombotic activity result in series [1] is recorded as “devoid of antithrombotic activity”. For the same molecule, the convulsions result in series [2] is listed as “can evoke convulsions at high doses”.
